The record followed here is patent publication US20240327429A1, “[1,3]Thiazolo[4,5-d]-pyrimidon-7-ones as inhibitors of NOX4” (Boehringer Ingelheim International GmbH, priority 2023, published 2024).

SMILES strings stand for the structures.

In data set [1] the target is T1, human NOX5 (hNOX5) (Homo sapiens, UniProt Q96PH1).
T1 construct: expressed in transfected cells; host or cells: HEK293
T1 sequence (Q96PH1 1-765): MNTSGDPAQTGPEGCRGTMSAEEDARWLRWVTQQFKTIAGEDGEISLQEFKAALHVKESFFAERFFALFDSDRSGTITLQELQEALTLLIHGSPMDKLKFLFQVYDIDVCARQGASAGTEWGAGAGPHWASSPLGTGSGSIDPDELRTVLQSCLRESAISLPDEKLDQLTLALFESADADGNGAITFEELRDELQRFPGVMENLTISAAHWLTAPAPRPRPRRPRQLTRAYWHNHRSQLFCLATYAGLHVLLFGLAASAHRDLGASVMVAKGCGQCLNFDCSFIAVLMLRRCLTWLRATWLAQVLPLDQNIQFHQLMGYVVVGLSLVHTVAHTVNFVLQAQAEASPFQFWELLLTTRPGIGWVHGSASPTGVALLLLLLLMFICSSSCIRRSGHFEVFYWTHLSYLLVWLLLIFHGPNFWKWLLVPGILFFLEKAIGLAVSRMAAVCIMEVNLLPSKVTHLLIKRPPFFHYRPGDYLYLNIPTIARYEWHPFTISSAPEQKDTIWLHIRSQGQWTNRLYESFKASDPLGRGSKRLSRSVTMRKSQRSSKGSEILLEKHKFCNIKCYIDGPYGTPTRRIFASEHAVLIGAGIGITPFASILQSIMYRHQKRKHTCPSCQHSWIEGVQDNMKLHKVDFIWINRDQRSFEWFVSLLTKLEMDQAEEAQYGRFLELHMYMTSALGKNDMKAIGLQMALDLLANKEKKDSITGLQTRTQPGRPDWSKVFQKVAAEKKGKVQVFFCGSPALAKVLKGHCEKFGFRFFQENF
Description: NOX5 inhibition assay (L-012), HEK293 cells stably overexpressing human NOX5. In kind it is cell-based. The settings on record: HEK293-hNOX5, PMA stimulated. Here is the method:
The synthetic gene hNOX5 (Accession: Q96PH1) is cloned into pcDNA3.1_Zeo. […] The final construct is verified by sequencing.
Evaluation of the NOX4 inhibitors on NOX5 activity is assessed in HEK293 cells stably overexpressing human NOX5 (hNOX5).
Cells are seeded in 384 well plates over-night. […] Cells are then stimulated with PMA at 0.1 μM to induce NOX5-dependent ROS production. […] Luminescence is measured with an PHERAstar multimode reader.

Data set [2] concerns human hepatocytes. Description: Evaluation of hepatocyte clearance (metabolic stability). The data set is classed as in vitro ADME. To be noted: 1 μM test compound, 5% human serum, Table 3. The method, then:
The metabolic degradation of the test compound is assayed in a hepatocyte suspension. Hepatocytes (cryopreserved) are incubated in Dulbecco's modified eagle medium (supplemented with […] glucagon/500 mL, 2.5 mg insulin/500 mL and 3.75 mg/500 mL hydrocortisone) containing 5% human serum.
Following a 30 min preincubation in an incubator (37° C., 10% CO2) 5 μl of test compound solution (80 μM; from 2 mM in DMSO stock solution diluted 1:25 with medium) are added into 395 μl hepatocyte suspension (cell density in the range 0.25-5 Mio cells/mL, typically 1 Mio cells/mL; final concentration of test compound 1 μM, final DMSO concentration 0.05%).
The cells are incubated for six hours (incubator, orbital shaker) and samples (25 μl) are taken at 0, 0.5, 1, 2, 4 and 6 hours. Samples are transferred into acetonitrile and pelleted by centrifugation (5 min). The supernatant is transferred to a new 96-deepwell plate, evaporated under nitrogen and resuspended.
Decline of Parent Compound is Analyzed by HPLC-MS/MS.
CLint is Calculated as Follows:
CL_[…]=Dose/AUC=(C0/CD)/(AUD+clast/k)×1000/60. • C0: initial concentration in the incubation [μM], CD: cell density of vital cells [10^6 cells/mL], AUD: area under the data [μM×h], clast: concentration of last data point [μM], • k: slope of the regression line for parent decline [h-1].
The calculated in vitro hepatic intrinsic clearance can be scaled up to the intrinsic in vivo hepatic clearance and used to predict hepatic in vivo blood clearance (CL) by the use of a liver model (well stirred model).
CL_[…]_INVIVO[ml/min/kg]=(CL_[…][μL/min/10^6 cells]×hepatocellularity[10^6 cells/g liver]×liver factor[g/kg bodyweight])/1000
CL[ml/min/kg]=CL_[…]_INVIVO[ml/min/kg]×hepatic blood flow[ml/min/kg]/(CL_[…]_INVIVO[ml/min/kg]+hepatic blood flow[ml/min/kg])

The IC50 is the midpoint of a concentration-inhibition curve. Read a low IC50 as higher potency. `O=c1c2scnc2nc(SCc2ccc(Cl)cc2F)n1-c1cc(F)c(O)c(F)c1` [Example 2, 5-((4-Chloro-2-fluorobenzyl)thio)-6-(3,5-difluoro-4-hydroxyphenyl)thiazolo[4,5-d]-pyrimidin-7(6H)-one]: the IC50 in data set [1] was more than 100 µM. The “Qh [%]” value in data set [2] worked out at 53%. `Cc1cc(Cl)ccc1CSc1nc2ncsc2c(=O)n1-c1cc(F)c(O)c(F)c1` [Example 3]: the 50% inhibitory concentration (IC50) in data set [1] is more than 100 µM.

`Cc1cc(F)cc(C)c1CSc1nc2ncsc2c(=O)n1-c1cc(F)c(O)c(F)c1` [Example 4]: the IC50 in data set [1] is more than 100 µM. In addition, the “Qh [%]” value in data set [2] was found to be 41%. Taken in the same sequence, the figures for `O=c1c2scnc2nc(SCc2ccc(Cl)cc2)n1-c1cc(F)c(O)c(F)c1` [Example 5] were more than 100 µM and 56%.

As to `O=c1c2scnc2nc(SCc2ccc(C(F)(F)F)cc2F)n1-c1cc(F)c(O)c(F)c1` [Example 6], the IC50 in data set [1] was more than 100 µM. In the case of `O=c1c2scnc2nc(SCc2ccc(C(F)(F)F)cc2)n1-c1cc(F)c(O)c(F)c1` [Example 7], the 50% inhibitory concentration (IC50) in data set [1] was more than 100 µM. Also, the “Qh [%]” value in data set [2] is 55%. As to `O=c1c2scnc2nc(SCc2c(F)cc(F)cc2F)n1-c1cc(F)c(O)c(F)c1` [Example 8], the half-inhibitory concentration (IC50) in data set [1] is more than 100 µM. Further, in data set [2], the “Qh [%]” value is reported as 42%.

With `Cc1cc(F)ccc1CSc1nc2ncsc2c(=O)n1-c1cc(F)c(O)c(F)c1` [Example 9], the IC50 in data set [1] is more than 100 µM. For the same molecule, the “Qh [%]” value in data set [2] amounted to 65%. In turn, `O=c1c2scnc2nc(SCc2c(F)cc(F)cc2F)n1-c1cc(F)c(O)cc1F` [Example 10, 6-(2,5-Difluoro-4-hydroxyphenyl)-5-((2,4,6-trifluorobenzyl)thio)thiazolo[4,5-d]pyrimidin-7(6H)-one] came in with a half-maximal inhibitory concentration (IC50) in data set [1] of 11.5 µM. For the same molecule, the “Qh [%]” value in data set [2] stood at 72%.

In turn, `O=c1c2scnc2nc(SCc2c(F)cc(F)cc2F)n1-c1ccc(O)c(F)c1` [Example 11] gave an IC50 in data set [1] of 13 µM. In data set [2], the “Qh [%]” value is reported as 79%. On to `O=c1c2scnc2nc(SCc2c(F)cc(F)cc2F)n1-c1ccc(O)c(F)c1F` [Example 12], for which the “Qh [%]” value in data set [2] was 77%. On to `O=c1c2scnc2nc(SCc2c(F)cc(F)cc2F)n1-c1c(F)cc(O)cc1F` [Example 13], for which half-maximal inhibition in data set [1] (IC50) required 5.1 µM. In the case of `O=c1c2scnc2nc(SCc2c(F)cc(F)cc2F)n1-c1ccc(O)cc1F` [Example 14], the IC50 in data set [1] amounted to 10.2 µM. Also, the “Qh [%]” value in data set [2] is reported as 73%. For `O=c1c2scnc2nc(SCc2c(F)cc(F)cc2F)n1-c1ccc(O)cc1` [Example 15], in that order: 59 µM and 61%. For `O=c1c2scnc2nc(SCc2c(F)cc(F)cc2F)n1-c1ccc(O)c(Cl)c1` [Example 16], in that order: 36 µM and 73%. Molecule `O=c1c2scnc2nc(SCc2c(F)cc(F)cc2F)n1-c1ccc(O)cc1Cl` [Example 17] yielded an IC50 in data set [1] of 17.5 µM. Also, the “Qh [%]” value in data set [2] turned out to be 70%. Turning to `N#Cc1cc(-n2c(SCc3c(F)cc(F)cc3F)nc3ncsc3c2=O)ccc1O` [Example 18], in data set [1], the IC50 is more than 100 µM. The “Qh [%]” value in data set [2] is recorded as 48%.

Turning to `O=c1c2scnc2nc(SCc2c(F)cc(F)cc2F)n1-c1ccc(O)cn1` [Example 19], in data set [1], the IC50 is more than 100 µM. Besides, the “Qh [%]” value in data set [2] amounted to 52%.

`O=c1c2scnc2nc(SCc2c(F)cc(F)cc2F)n1-c1cc(F)c(O)cn1` [Example 20]: in data set [1], half-maximal inhibition (IC50) required 32.7 µM. Also, the “Qh [%]” value in data set [2] is 51%. For `O=c1c2scnc2nc(SCc2c(F)cc(F)cc2F)n1-c1ncc(O)cn1` [Example 21, 6-(5-Hydroxypyrimidin-2-yl)-5-((2,4,6-trifluorobenzyl)thio)thiazolo[4,5-d]pyrimidin-7(6H)-one], in data set [1], the IC50 was more than 100 µM. The “Qh [%]” value in data set [2] was 27%. Taken in the same sequence, the figures for `O=c1c2scnc2nc(SCc2ccc(Cl)cc2F)n1-c1ccc(O)nc1` [Example 22, 5-((4-Chloro-2-fluorobenzyl)thio)-6-(6-hydroxypyridin-3-yl)thiazolo[4,5-d]pyrimidin-7(6H)-one] were more than 100 µM and 45%. For `Cc1cc(Cl)ccc1CSc1nc2ncsc2c(=O)n1-c1ccc(O)nc1` [Example 23], in that order: more than 100 µM and 55%. Taken in the same sequence, the figures for `Cc1cc(F)cc(C)c1CSc1nc2ncsc2c(=O)n1-c1ccc(O)nc1` [Example 24] were more than 100 µM and 45%. On to `O=c1c2scnc2nc(SCc2ccc(Cl)cc2)n1-c1ccc(O)nc1` [Example 25], for which the half-inhibitory concentration (IC50) in data set [1] was more than 100 µM. The “Qh [%]” value in data set [2] was determined as 41%.

Molecule `O=c1c2scnc2nc(SCc2ccc(C(F)(F)F)cc2F)n1-c1ccc(O)nc1` [Example 26] displayed an IC50 in data set [1] of 57.4 µM. For the same molecule, the “Qh [%]” value in data set [2] was found to be 41%.

Regarding `O=c1c2scnc2nc(SCc2ccc(C(F)(F)F)cc2)n1-c1ccc(O)nc1` [Example 27], the IC50 in data set [1] came out at 93.3 µM. The “Qh [%]” value in data set [2] is 37%. Turning to `O=c1c2scnc2nc(SCc2c(F)cc(F)cc2F)n1-c1ccc(O)nc1` [Example 28], in data set [1], the IC50 is more than 100 µM. The “Qh [%]” value in data set [2] stood at 29%. In turn, `Cc1cc(F)ccc1CSc1nc2ncsc2c(=O)n1-c1ccc(O)nc1` [Example 29] yielded a half-inhibitory concentration (IC50) in data set [1] of more than 100 µM. In data set [2], the “Qh [%]” value came out at 54%. Taken in the same sequence, the figures for `O=c1c2scnc2nc(SCc2ccc(F)cc2)n1-c1ccc(O)nc1` [Example 30] were 94.8 µM and 22%. Regarding `O=c1c2scnc2nc(SCc2c(F)cc(F)cc2F)n1-c1cnc(O)c(F)c1` [Example 31, 6-(5-Fluoro-6-hydroxypyridin-3-yl)-5-((2,4,6-trifluorobenzyl)thio)thiazolo[4,5-d]-pyrimidin-7(6H)-one], the IC50 in data set [1] is more than 100 µM. The “Qh [%]” value in data set [2] is given as 14%. As for `O=c1c2scnc2nc(SCc2ccc(C(F)(F)F)cc2)n1-c1cnc(O)c(F)c1` [Example 32, 6-(5-Fluoro-6-hydroxypyridin-3-yl)-5-((4-(trifluoromethyl)benzyl)thio)thiazolo[4,5-d]pyrimidin-7(6H)-one], the IC50 in data set [1] is 55.7 µM. Besides, the “Qh [%]” value in data set [2] was 15%. In data set [1], `O=c1c2scnc2nc(SCc2ccc(Cl)cc2)n1-c1cnc(O)c(F)c1` [Example 33] gave a 50% inhibitory concentration (IC50) of more than 100 µM. Moreover, the “Qh [%]” value in data set [2] worked out at 15%. Taken in the same sequence, the figures for `O=c1c2scnc2nc(SCc2ccc(Br)cc2F)n1-c1cnc(O)c(F)c1` [Example 34] were 46.5 µM and 8%. On to `O=c1c2scnc2nc(SCc2ccc(Cl)cc2F)n1-c1cnc(O)c(F)c1` [Example 35], for which half-maximal inhibition in data set [1] (IC50) required 65.5 µM. The “Qh [%]” value in data set [2] is 15%. Molecule `Cc1cc(F)ccc1CSc1nc2ncsc2c(=O)n1-c1cnc(O)c(F)c1` [Example 36] showed a 50% inhibitory concentration (IC50) in data set [1] of more than 100 µM. Further, in data set [2], the “Qh [%]” value amounted to 34%.

`Cc1cc(Cl)ccc1CSc1nc2ncsc2c(=O)n1-c1cnc(O)c(F)c1` [Example 37] showed an IC50 in data set [1] of 64.5 µM. Further, the “Qh [%]” value in data set [2] stood at 16%. In data set [1], `Cc1c(F)cccc1CSc1nc2ncsc2c(=O)n1-c1cnc(O)c(F)c1` [Example 40] displayed a half-maximal inhibitory concentration (IC50) of 56.3 µM. On to `Cc1cc(F)cc(C)c1CSc1nc2ncsc2c(=O)n1-c1ccc(O)nn1` [Example 63], for which the IC50 in data set [1] was more than 100 µM. Still for that read-out and setting: the result for `Cc1cc(F)ccc1CSc1nc2ncsc2c(=O)n1-c1ccc(O)nn1` [Example 68] reads more than 100 µM.
